pKi: −log10 of the molar value.

Experimental findings from ChEMBL document CHEMBL1122894, “Preparation of 20-(hydroxymethyl)-4-methyl-4-aza-2-oxa-5 alpha-pregnan-3-one as an inhibitor of testosterone 5 alpha-reductase” (J Med Chem, 1985) are described below.

A short description of test [1]: Compound was evaluated for in vitro inhibition of Testosterone 5 alpha-Reductase using substrate concentration 3 x 10e-7 M. Further details: species or system Rattus norvegicus.
The species entered for another test is Rattus norvegicus. As to the kind of experiment: Comparative activity against Testosterone 5 alpha-Reductase evaluated by setting Ki of 7-(2-Hydroxy-1-methyl-ethyl)-1,4a,6a-trimethyl-hexadecahydro-indeno[5,4-f]quinolin-2-one at 1.

A word on the pKi: it is the negative decadic logarithm of the Ki, by convention in mol/L. A high value points to a low Ki. In test [1], `CC(CO)C1CCC2C3CC[C@H]4N(C)C(=O)OCC4(C)C3CCC12C` (stereo not given in full) showed a pKi of 6.92. `CC(CO)C1CCC2C3CC[C@H]4N(C)C(=O)CCC4(C)C3CCC12C` (stereo not given in full) gave a pKi in test [1] of 8.42. Further, the Relative activity in the test filed under Rattus norvegicus turned out to be 1. Compound `CC(CO)C1CCC2C3CC[C@H]4N(C)C(=S)OCC4(C)C3CCC12C` (stereo not given in full) showed a pKi in test [1] of 6.40. `CCN(CC)C(=O)[C@H]1CC[C@H]2[C@@H]3CC[C@H]4N(C)C(=O)CC[C@]4(C)[C@H]3CC[C@]12C`: in test [1], the pKi is 8.14.
